Measured values as given in PubChem BioAssay (NCI).
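All cell lines were grown in 96-well plates and treated with compound for 48 hours. The concentration for 50% growth inhibition is given as GI50. TGI is the concentration that stops growth completely.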

Tests used:
Assay in all cases: NCI anticancer screen, dose series, 48 h
HOP-92 NSCLC = tested on: HOP-92 NSCLC
T-47D breast = tested on: T-47D breast
EKVX NSCLC = tested on: EKVX NSCLC
UACC-257 melanoma = tested on: UACC-257 melanoma
MDA-MB-231 breast = tested on: MDA-MB-231 breast
BT-549 breast = tested on: BT-549 breast
NCI-H460 lung = tested on: NCI-H460 lung
M14 melanoma = tested on: M14 melanoma
KM12 colon = tested on: KM12 colon
IGROV1 ovarian = tested on: IGROV1 ovarian

Row | Compound | GI50 (HOP-92 NSCLC) [µM] | TGI (HOP-92 NSCLC) [µM] | GI50 (T-47D breast) [µM] | TGI (T-47D breast) [µM] | GI50 (EKVX NSCLC) [µM] | TGI (EKVX NSCLC) [µM] | GI50 (UACC-257 melanoma) [µM] | TGI (UACC-257 melanoma) [µM] | GI50 (MDA-MB-231 breast) [µM] | TGI (MDA-MB-231 breast) [µM] | GI50 (BT-549 breast) [µM] | TGI (BT-549 breast) [µM] | GI50 (NCI-H460 lung) [µM] | TGI (NCI-H460 lung) [µM] | GI50 (M14 melanoma) [µM] | TGI (M14 melanoma) [µM] | GI50 (KM12 colon) [µM] | TGI (KM12 colon) [µM] | TGI (IGROV1 ovarian) [µM] | GI50 (IGROV1 ovarian) [µM]
1 | C=C1C(=O)O[C@H]2[C@H]1CC/C(COC(=O)c1c[nH]c3ccccc13)=C\CC[C@@]1(C)O[C@@H]21 | 0.169 | 0.45 | 0.401 | 2.26 | 0.315 | 2.01 | 0.368 | 1.49 | 0.197 | 0.447 | 0.175 | 0.414 | 1.1 | 3.18 | 0.229 | 0.651 | 0.477 | 2.36 |  | 
2 | CCOC(=O)NC(=O)c1cn(CCCO)c(=O)[nH]c1=O |  | > 100 |  |  |  | > 100 |  | > 100 |  |  |  |  |  | > 100 |  | > 100 |  | > 100 | > 100 | 
3 | O=C(CSc1ccc(Cl)cc1)Nc1ccc(-c2nc3ccccc3s2)c(Cl)c1 |  |  | 2.54 | 8.63 | 4.1 | 40.3 | 15.7 | > 100 | 8.34 | 23.6 | 2.76 | 8.53 | 3.41 | 16 | 4.87 | 33.8 | 3.66 | > 100 | 75.8 | 0.744
4 | CC(=O)[C@@]12O[C@@H]1CC1C3CCC4=CC(O)CCC4(C)C3CCC12C (some centres undefined) |  |  |  |  | > 100 | > 100 | > 100 | > 100 | 12.5 | 26.8 | 27.8 | > 100 | 70.8 | > 100 | 95.9 | > 100 | 24.7 | > 100 | > 100 | 31.8
5 | C/C(=N\NC(=S)NC(CCC(=O)O)C(=O)O)c1ccccn1 (centres undefined) |  | > 100 |  |  |  | > 100 |  | > 100 |  |  |  |  |  | > 100 |  | > 100 |  | > 100 | > 100 | 
6 | c1ccc(COc2cccc3ccc[n+](Cc4ccccc4)c23)cc1 |  | 34.2 |  |  |  | > 100 |  | 6.34 |  |  |  |  |  | 35.7 |  | 60.2 |  | 15.7 | 25.7 | 
7 | CCN1c2ccccc2C(C(SC)S(=O)(=O)c2ccc(C)cc2)c2c1[nH]c(=O)n(C)c2=O (centres undefined) |  | > 100 |  |  |  | > 100 |  | > 100 |  |  |  |  |  |  |  |  |  | > 100 | > 100 | 
8 | O=S(=O)(CCn1c(Sc2ccccc2)c(Sc2ccccc2)c2ccccc21)c1ccccc1 |  |  |  | > 100 |  | > 100 |  |  |  | > 100 |  | > 100 |  | > 100 |  | > 100 |  | > 100 | > 100 | 
9 | COc1cc(C2c3cc4c(cc3OC(C)(O)C2C)OCO4)cc(OC)c1OC (centres undefined) |  |  |  |  |  | > 100 |  | > 100 |  | 24 |  | > 100 |  | > 100 |  |  |  | 57.6 | 76.2 | 
10 | CCCCCCCCC/C=C1\CCC(CN2CCOCC2)C1=O (centres undefined) |  | 7.4 |  |  |  | 33.9 |  | 10.7 |  | 11.2 |  | 3.8 |  | 21.1 |  | 9.41 |  | 5.2 | 14.8 | 
11 | Cn1cnc([N+](=O)[O-])c1Sc1nc2ccccc2[nH]1 |  | 40.8 |  |  |  | 36.9 |  | 34.4 |  |  |  |  |  | 64.9 |  | 56.3 |  | 48.4 | 54.4 | 
12 | COc1ncnc(NS(=O)(=O)c2ccc(N=C3C(=O)N(CN4CCN(c5c(F)cc6c(=O)c(C(=O)O)cn(C7CC7)c6c5OC)CC4C)c4ccc(Cl)cc43)cc2)c1OC (centres undefined) | 10.6 | > 50 |  |  | 27.7 | > 50 | 6.32 | 14.7 | 6.3 | > 50 | 20.6 | > 50 | 11 | > 50 | 21.1 | > 50 | 13 | > 50 | > 50 | 20
13 | [Cl-].[La+3].[O-]/N=C(\c1ccccc1)c1ccccn1.[O-]/N=C(\c1ccccc1)c1ccccn1.[O-]/N=C(\c1ccccc1)c1ccccn1 |  |  |  |  | 40.6 | > 89.5 | 41.1 | > 100 |  |  |  |  | 15 | > 69.2 | 20.2 | 41.4 | 82 | > 100 | > 100 | 51.5
14 | CN1CCN(CCCn2c(=O)c3sc4ncccc4c3n3nnc(-c4ccccc4)c23)CC1 | 5.8 | 12.9 | 7.99 | 15.8 | 6.47 | 13.3 | 2.27 | 7.62 | 6.88 | 13.6 |  |  | 6.88 | 13.7 | 2.13 | 7.38 | 4.24 | 10.7 | 13.8 | 5.93
15 | Cc1cc(-c2ccc3nc(C4CCOCC4)n(CCOC(F)(F)F)c3c2)cn(C)c1=O | 0.182 | 36.6 |  |  | 0.761 | > 100 |  |  |  |  | 3.99 | > 80.4 | 1.06 |  |  |  | 0.724 | 11.4 | 6.91 | 
16 | CN(C)c1ccc(/C=C(\NC(=O)c2ccccc2)c2nc3ncncc3[nH]2)cc1 |  | > 100 |  |  |  | > 100 |  |  |  |  |  |  |  |  |  | > 100 |  | > 100 | > 100 | 
17 | CC1=CC(O)(c2ccc(-c3ccccc3Cl)cc2)OC1=O (centres undefined) |  | > 100 |  |  |  | > 100 |  | > 100 |  |  |  |  |  | > 100 |  | > 100 |  | > 100 | > 100 | 
18 | O=c1c2sccc2n(CC2COc3ccccc3O2)c(=O)n1O (centres undefined) |  |  | 16.8 | > 100 | 35.3 | > 100 | 22.4 | > 100 | 39 | > 100 | 12.1 | > 100 | 4.66 | 41.8 | 21.2 | > 100 | 9.21 | 86 | > 100 | 15.4
19 | CCOC(=O)C(=C=C=C(c1ccccc1)c1ccccc1)C(=O)OCC |  | 31.3 |  |  |  | 82.8 |  | 33.4 |  |  |  |  |  | 46.5 |  | 41.5 |  | 46.1 | 37.9 | 
